Test system: Key Grass and Sedge Weeds as well as Grass Crops
Test: Post-Emergent Test II (Table 6)
Format: in vivo
Conditions: post-emergence, 336 h, CYPSS, 70 g ai/ha, 14 days after application, read-out: Visual Growth Reduction (%) 14 Days After Application CYPSS
Outline: (§1)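 Visual injury ratings (0 = no injury, 100 = complete kill) were taken 14 days after treatment relative to untreated plants. Seedlings at the first or second true leaf stage received an overhead spray at 187 L/ha, and solvent-blank sprayed plants served as controls.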

Row | Structure (SMILES) | pest or weed control at 70 g/ha [%]
1 | COC(=O)c1nc(-c2ccc(C3CC3)nc2)c(F)c(N)c1Cl [Compound 49] | 95 to 100

Same assay, conditions: post-emergence, 336 h, CYPSS, 140 g ai/ha, 14 days after application, read-out: Visual Growth Reduction (%) 14 Days After Application CYPSS

Row | Structure (SMILES) | pest or weed control at 140 g/ha [%]
2 | COC(=O)c1nc(-c2ccc(C3CC3)nc2)c(F)c(N)c1Cl [Compound 49] | 95 to 100

Same assay, conditions: post-emergence, 336 h, DIGSA: crabgrass (Digitaria sanguinalis), 70 g ai/ha, 14 days after application, read-out: Visual Growth Reduction (%) 14 Days After Application DIGSA

Row | Structure (SMILES) | pest or weed control at 70 g/ha [%]
3 | COC(=O)c1nc(-c2ccc(C3CC3)nc2)c(F)c(N)c1Cl [Compound 49] | 75 to 84

Same assay, conditions: post-emergence, 336 h, DIGSA: crabgrass (Digitaria sanguinalis), 140 g ai/ha, 14 days after application, read-out: Visual Growth Reduction (%) 14 Days After Application DIGSA

Row | Structure (SMILES) | pest or weed control at 140 g/ha [%]
4 | COC(=O)c1nc(-c2ccc(C3CC3)nc2)c(F)c(N)c1Cl [Compound 49] | 75 to 84

Same assay, conditions: post-emergence, 336 h, ECHSS, 70 g ai/ha, 14 days after application, read-out: Visual Growth Reduction (%) 14 Days After Application ECHSS

Row | Structure (SMILES) | pest or weed control at 70 g/ha [%]
5 | COC(=O)c1nc(-c2ccc(C3CC3)nc2)c(F)c(N)c1Cl [Compound 49] | 95 to 100

Same assay, conditions: post-emergence, 336 h, ECHSS, 140 g ai/ha, 14 days after application, read-out: Visual Growth Reduction (%) 14 Days After Application ECHSS

Row | Structure (SMILES) | pest or weed control at 140 g/ha [%]
6 | COC(=O)c1nc(-c2ccc(C3CC3)nc2)c(F)c(N)c1Cl [Compound 49] | 95 to 100

Same assay, conditions: post-emergence, 336 h, ORYSS (crop), 70 g ai/ha, 14 days after application, read-out: Visual Growth Reduction (%) 14 Days After Application ORYSS

Row | Structure (SMILES) | pest or weed control at 70 g/ha [%]
7 | COC(=O)c1nc(-c2ccc(C3CC3)nc2)c(F)c(N)c1Cl [Compound 49] | 30 to 44

Same assay, conditions: post-emergence, 336 h, ORYSS (crop), 140 g ai/ha, 14 days after application, read-out: Visual Growth Reduction (%) 14 Days After Application ORYSS

Row | Structure (SMILES) | pest or weed control at 140 g/ha [%]
8 | COC(=O)c1nc(-c2ccc(C3CC3)nc2)c(F)c(N)c1Cl [Compound 49] | 30 to 44

Same assay, conditions: post-emergence, 336 h, SETFA: giant foxtail (Setaria faberi), 70 g ai/ha, 14 days after application, read-out: Visual Growth Reduction (%) 14 Days After Application SETFA

Row | Structure (SMILES) | pest or weed control at 70 g/ha [%]
9 | COC(=O)c1nc(-c2ccc(C3CC3)nc2)c(F)c(N)c1Cl [Compound 49] | 85 to 94

Same assay, conditions: post-emergence, 336 h, SETFA: giant foxtail (Setaria faberi), 140 g ai/ha, 14 days after application, read-out: Visual Growth Reduction (%) 14 Days After Application SETFA

Row | Structure (SMILES) | pest or weed control at 140 g/ha [%]
10 | COC(=O)c1nc(-c2ccc(C3CC3)nc2)c(F)c(N)c1Cl [Compound 49] | 85 to 94

Same assay, conditions: post-emergence, 336 h, SORVU: grain sorghum (Sorghum vulgare), 70 g ai/ha, 14 days after application, read-out: Visual Growth Reduction (%) 14 Days After Application SORVU

Row | Structure (SMILES) | pest or weed control at 70 g/ha [%]
11 | COC(=O)c1nc(-c2ccc(C3CC3)nc2)c(F)c(N)c1Cl [Compound 49] | 85 to 94

Same assay, conditions: post-emergence, 336 h, SORVU: grain sorghum (Sorghum vulgare), 140 g ai/ha, 14 days after application, read-out: Visual Growth Reduction (%) 14 Days After Application SORVU

Row | Structure (SMILES) | pest or weed control at 140 g/ha [%]
12 | COC(=O)c1nc(-c2ccc(C3CC3)nc2)c(F)c(N)c1Cl [Compound 49] | 85 to 94

Same assay, conditions: post-emergence, 336 h, TRZSS (crop), 70 g ai/ha, 14 days after application, read-out: Visual Growth Reduction (%) 14 Days After Application TRZSS

Row | Structure (SMILES) | pest or weed control at 70 g/ha [%]
13 | COC(=O)c1nc(-c2ccc(C3CC3)nc2)c(F)c(N)c1Cl [Compound 49] | 45 to 59

Same assay, conditions: post-emergence, 336 h, TRZSS (crop), 140 g ai/ha, 14 days after application, read-out: Visual Growth Reduction (%) 14 Days After Application TRZSS

Row | Structure (SMILES) | pest or weed control at 140 g/ha [%]
14 | COC(=O)c1nc(-c2ccc(C3CC3)nc2)c(F)c(N)c1Cl [Compound 49] | 45 to 59

Same assay, conditions: post-emergence, 336 h, ZEAMX: maize, corn (Zea mays), 70 g ai/ha, 14 days after application, read-out: Visual Growth Reduction (%) 14 Days After Application ZEAMX

Row | Structure (SMILES) | pest or weed control at 70 g/ha [%]
15 | COC(=O)c1nc(-c2ccc(C3CC3)nc2)c(F)c(N)c1Cl [Compound 49] | 95 to 100

Same assay, conditions: post-emergence, 336 h, ZEAMX: maize, corn (Zea mays), 140 g ai/ha, 14 days after application, read-out: Visual Growth Reduction (%) 14 Days After Application ZEAMX

Row | Structure (SMILES) | pest or weed control at 140 g/ha [%]
16 | COC(=O)c1nc(-c2ccc(C3CC3)nc2)c(F)c(N)c1Cl [Compound 49] | 95 to 100

Test system: Key Broadleaf Weed and Crop Species
Test: Post-Emergent Test II (Table 5)
Format: in vivo
Conditions: Abutilon theophrasti, post-emergence, 336 h, ABUTH: velvetleaf (Abutilon theophrasti), application rate 70 (kg ai/ha; footnote: g ai/ha), read-out: Visual Growth Reduction (%) 14 Days After Application ABUTH
Outline: as §1

Row | Structure (SMILES) | pest or weed control at 70 g/ha [%]
17 | COC(=O)c1nc(-c2ccc(C3CC3)nc2)c(F)c(N)c1Cl [Compound 49] | 95 to 100

Same assay, conditions: Abutilon theophrasti, post-emergence, 336 h, ABUTH: velvetleaf (Abutilon theophrasti), application rate 140 (kg ai/ha; footnote: g ai/ha), read-out: Visual Growth Reduction (%) 14 Days After Application ABUTH

Row | Structure (SMILES) | pest or weed control at 140 g/ha [%]
18 | COC(=O)c1nc(-c2ccc(C3CC3)nc2)c(F)c(N)c1Cl [Compound 49] | 95 to 100

Same assay, conditions: Amaranthus retroflexus, post-emergence, 336 h, AMARE: redroot pigweed (Amaranthus retroflexus), application rate 70 (kg ai/ha; footnote: g ai/ha), read-out: Visual Growth Reduction (%) 14 Days After Application AMARE

Row | Structure (SMILES) | pest or weed control at 70 g/ha [%]
19 | COC(=O)c1nc(-c2ccc(C3CC3)nc2)c(F)c(N)c1Cl [Compound 49] | 95 to 100

Same assay, conditions: Amaranthus retroflexus, post-emergence, 336 h, AMARE: redroot pigweed (Amaranthus retroflexus), application rate 140 (kg ai/ha; footnote: g ai/ha), read-out: Visual Growth Reduction (%) 14 Days After Application AMARE

Row | Structure (SMILES) | pest or weed control at 140 g/ha [%]
20 | COC(=O)c1nc(-c2ccc(C3CC3)nc2)c(F)c(N)c1Cl [Compound 49] | 95 to 100

Same assay, conditions: Brassica napus, post-emergence, 336 h, BRSSS: oilseed rape, canola (Brassica napus), application rate 70 (kg ai/ha; footnote: g ai/ha), read-out: Visual Growth Reduction (%) 14 Days After Application BRSSS

Row | Structure (SMILES) | pest or weed control at 70 g/ha [%]
21 | COC(=O)c1nc(-c2ccc(C3CC3)nc2)c(F)c(N)c1Cl [Compound 49] | 75 to 84

Same assay, conditions: Brassica napus, post-emergence, 336 h, BRSSS: oilseed rape, canola (Brassica napus), application rate 140 (kg ai/ha; footnote: g ai/ha), read-out: Visual Growth Reduction (%) 14 Days After Application BRSSS

Row | Structure (SMILES) | pest or weed control at 140 g/ha [%]
22 | COC(=O)c1nc(-c2ccc(C3CC3)nc2)c(F)c(N)c1Cl [Compound 49] | 75 to 84

Same assay, conditions: Chenopodium album, post-emergence, 336 h, CHEAL: lambsquarters (Chenopodium album), application rate 70 (kg ai/ha; footnote: g ai/ha), read-out: Visual Growth Reduction (%) 14 Days After Application CHEAL

Row | Structure (SMILES) | pest or weed control at 70 g/ha [%]
23 | COC(=O)c1nc(-c2ccc(C3CC3)nc2)c(F)c(N)c1Cl [Compound 49] | 95 to 100

Same assay, conditions: Chenopodium album, post-emergence, 336 h, CHEAL: lambsquarters (Chenopodium album), application rate 140 (kg ai/ha; footnote: g ai/ha), read-out: Visual Growth Reduction (%) 14 Days After Application CHEAL

Row | Structure (SMILES) | pest or weed control at 140 g/ha [%]
24 | COC(=O)c1nc(-c2ccc(C3CC3)nc2)c(F)c(N)c1Cl [Compound 49] | 95 to 100

Same assay, conditions: Euphorbia heterophylla, post-emergence, 336 h, EPHHL: wild poinsettia (Euphorbia heterophylla), application rate 70 (kg ai/ha; footnote: g ai/ha), read-out: Visual Growth Reduction (%) 14 Days After Application EPHHL

Row | Structure (SMILES) | pest or weed control at 70 g/ha [%]
25 | COC(=O)c1nc(-c2ccc(C3CC3)nc2)c(F)c(N)c1Cl [Compound 49] | 95 to 100

Same assay, conditions: Euphorbia heterophylla, post-emergence, 336 h, EPHHL: wild poinsettia (Euphorbia heterophylla), application rate 140 (kg ai/ha; footnote: g ai/ha), read-out: Visual Growth Reduction (%) 14 Days After Application EPHHL

Row | Structure (SMILES) | pest or weed control at 140 g/ha [%]
26 | COC(=O)c1nc(-c2ccc(C3CC3)nc2)c(F)c(N)c1Cl [Compound 49] | 95 to 100

Same assay, conditions: Helianthus annuus, post-emergence, 336 h, HELAN: sunflower (Helianthus annuus), application rate 70 (kg ai/ha; footnote: g ai/ha), read-out: Visual Growth Reduction (%) 14 Days After Application HELAN

Row | Structure (SMILES) | pest or weed control at 70 g/ha [%]
27 | COC(=O)c1nc(-c2ccc(C3CC3)nc2)c(F)c(N)c1Cl [Compound 49] | 95 to 100

Same assay, conditions: Helianthus annuus, post-emergence, 336 h, HELAN: sunflower (Helianthus annuus), application rate 140 (kg ai/ha; footnote: g ai/ha), read-out: Visual Growth Reduction (%) 14 Days After Application HELAN

Row | Structure (SMILES) | pest or weed control at 140 g/ha [%]
28 | COC(=O)c1nc(-c2ccc(C3CC3)nc2)c(F)c(N)c1Cl [Compound 49] | 95 to 100

Same assay, conditions: Viola tricolor, post-emergence, 336 h, VIOTR: wild pansy (Viola tricolor), application rate 70 (kg ai/ha; footnote: g ai/ha), read-out: Visual Growth Reduction (%) 14 Days After Application VIOTR

Row | Structure (SMILES) | pest or weed control at 70 g/ha [%]
29 | COC(=O)c1nc(-c2ccc(C3CC3)nc2)c(F)c(N)c1Cl [Compound 49] | 30 to 44

Same assay, conditions: Viola tricolor, post-emergence, 336 h, VIOTR: wild pansy (Viola tricolor), application rate 140 (kg ai/ha; footnote: g ai/ha), read-out: Visual Growth Reduction (%) 14 Days After Application VIOTR

Row | Structure (SMILES) | pest or weed control at 140 g/ha [%]
30 | COC(=O)c1nc(-c2ccc(C3CC3)nc2)c(F)c(N)c1Cl [Compound 49] | 45 to 59

Test system: not given
Test: not given
Conditions: not given

Row | melting point [°C] | Structure (SMILES)
31 | 124 to 126 | COC(=O)c1nc(-c2ccc(C3CC3)nc2)c(F)c(N)c1Cl [Compound 49]
